US4958010A, “Epipodophyllotoxin glucoside lactam derivatives” (Bristol-Myers Company, priority 1989, dated 1990)
Values after ≈ are worked out from the molar mass of the structure shown. Values joined by “and” are separate entries in the source; they are usually repeats but may differ in a detail not shown here. Identical values can stand only once. Counter-ions that a name gives are not always drawn.

Assays:
B16-F10 murine melanoma = test: in vitro cytotoxicity assay, B16-F10 murine melanoma; assay type: cell-based; conditions: four-fold serial dilution, replicate determinations on separate lines; for IC50: Mus musculus, B16-F10, concentration required to inhibit cell growth by 50%; for IC50 B16-F10: concentration required to inhibit cell growth by 50%
Description: (§1) Representative compounds of the present invention were also evaluated in in vitro cytotoxicity assay against various murine and human tumor cell lines. The in vitro cytotoxicity assay involved growing various mammalian tumor cells, including human tumor cells, on microtitre plates employing established tissue culture methods. The concentration of each compound required to inhibit cell growth by 50% (IC50) was then determined by four-fold serial dilution technique. Tumor cells of the following types were employed for each compound tested: B16-F10 murine melanoma; Moser human colon; SW900 human lung; and two human colon tumor cell lines namely HCT-116, and HCT/VP35, the latter being resistant to etoposide (VP). […] The in vitro data may also be evaluated in terms of potency ratio which is defined as the ratio of IC50 against an etoposide-resistant cell-line to IC50 against an etoposide-sensitive cell-line.

HCT-116 = test: in vitro cytotoxicity assay, HCT-116 human colon tumor; assay type: cell-based; conditions: four-fold serial dilution, replicate determinations on separate lines; for IC50: Homo sapiens, HCT-116, concentration required to inhibit cell growth by 50%; for IC50 HCT-116: concentration required to inhibit cell growth by 50%
Description: as §1

HCT/VP35 = test: in vitro cytotoxicity assay, HCT/VP35 human colon tumor resistant to etoposide; assay type: cell-based; conditions: for IC50: Homo sapiens, HCT/VP35, etoposide-resistant line; for IC50 / IC50 HCT/VP35: concentration required to inhibit cell growth by 50%, four-fold serial dilution, replicate determinations on separate lines; for IC50 HCT/VP35: etoposide-resistant line; for potency ratio IC50 HCT/VP35 : IC50 HCT-116: ratio of IC50 against etoposide-resistant cell line to IC50 against etoposide-sensitive cell line, same experiment
Description: as §1

Moser human colon = test: in vitro cytotoxicity assay, Moser human colon; assay type: cell-based; conditions: concentration required to inhibit cell growth by 50%, four-fold serial dilution, replicate determinations on separate lines; for IC50: Homo sapiens
Description: as §1

SW900 human lung = test: in vitro cytotoxicity assay, SW900 human lung; assay type: cell-based; conditions: four-fold serial dilution, replicate determinations on separate lines; for IC50: Homo sapiens, SW900, concentration required to inhibit cell growth by 50%; for IC50 SW900: concentration required to inhibit cell growth by 50%
Description: as §1

P388 leukemia = test: antitumor activity against intravenously implanted P388 leukemia in BDF1 female mice; assay type: in vivo, murine (BDF1 female mice); conditions: 10^6 P388 cells i.v., drug i.v. on days 5 and 8, 200 mg/kg/dose, 64 days
Description: Compound of Example 15 was evaluated against intravenously implanted P388 leukemia (10^6 cells) in BDF1 female mice. The test compound was administered intravenously at various dose levels to groups of six mice on days 5 and 8; the positive control, etoposide, was given intraperitoneally. The experiment lasted 64 days.

[1] = Cancer Chemoth. Rep., 1966, 50:565-571; cited from earlier work

Row | SMILES | IC50 (B16-F10 murine melanoma) | IC50 B16-F10 (B16-F10 murine melanoma) | IC50 (HCT-116) | IC50 HCT-116 (HCT-116) | IC50 (HCT/VP35) | IC50 (Moser human colon) | IC50 Moser (Moser human colon) | IC50 (SW900 human lung) | IC50 SW900 (SW900 human lung) | IC50 HCT/VP35 (HCT/VP35) | potency ratio IC50 HCT/VP35 : IC50 HCT-116 (HCT/VP35) | max. % T/C (P388 leukemia) | antitumor activity in clinical trials [1]
1 | COc1cc([C@@H]2c3cc4c(cc3[C@@H](O[C@@H]3O[C@@H]5CO[C@@H](C)O[C@H]5[C@H](O)[C@H]3O)[C@@H](CO)[C@@H]2C(N)=O)OCO4)cc(OC)c1O (relative stereo) [Example 2, Naphtho[2,3-d]-1,3-dioxole-6-carboxamide, 5,6,7,8-tetrahydro-8-[(4,6-0-ethylidene-β-D-glucopyranosyl)oxy]-5-[(4-hydroxy-3,5-dimethoxy)phenyl]-7-(hydroxymethyl)-, [5Rα,6α,7β,8β(R*)]-] | 70.6 µg/mL (≈ 117 µM) | 93.03 µg/mL (≈ 154 µM) | 78.6 µg/mL (≈ 130 µM) | 96.28 µg/mL (≈ 159 µM) | > 250 µg/mL | 107 µg/mL (≈ 177 µM) | 115.67 µg/mL (≈ 191 µM) | 106 µg/mL (≈ 175 µM) | 120.54 µg/mL (≈ 199 µM) |  |  |  | 
2 | COc1cc([C@@H]2c3cc4c(cc3[C@@H](O[C@@H]3O[C@@H]5CO[C@@H](C)O[C@H]5[C@H](O)[C@H]3O)[C@H]3CN(N=C(C)C)C(=O)[C@H]23)OCO4)cc(OC)c1O (relative stereo) [Example 8, 6H-Pyrrolo[3',4':6,7]naphtho[2,3-d]-1,3-dioxole-6-one, 5,5,a,7,8,8a,9-hexahydro-9-[(4,6-O-ethylidene-β-D-glucopyranosyl)oxy]-5-[(4-hydroxy-3,5-dimethoxy)phenyl]-7-[(2-propylidene)amino]-, [5 R-[5α,5aβ,8aα,9β(R*)]-] | 43.2 µg/mL (≈ 67.3 µM) | 61.29 µg/mL and 74.21 µg/mL | 69.4 µg/mL (≈ 108 µM) | 78.90 µg/mL and 108.89 µg/mL | 103 µg/mL (≈ 160 µM) |  | 91.26 µg/mL and 123.63 µg/mL and > 250 µg/mL | > 250 µg/mL |  | 96.26 µg/mL (≈ 150 µM) |  |  | 
3 | COc1cc([C@@H]2c3cc4c(cc3[C@@H](O[C@@H]3O[C@@H]5CO[C@@H](C)O[C@H]5[C@H](O)[C@H]3O)[C@H]3CN(N=Cc5ccccc5)C(=O)[C@H]23)OCO4)cc(OC)c1O [Example 3, 6H-Pyrrolo[3',4':6,7]naphtho[2,3-d]-1,3-dioxole-6-one, 5,5a,7,8,8a,9-hexahydro-9-[(4,6-O-ethylidene-β-D-glucopyranosyl)oxy]-5-[(4-hydroxy-3,5-dimethoxy)phenyl]-7-[(phenylmethylene)amino][5R-[5α,5aβ,8aα,9β(R*)]-] | 10.3 µg/mL (≈ 15 µM) | 17.80 µg/mL (≈ 25.8 µM) | 23.8 µg/mL (≈ 34.4 µM) | 20.04 µg/mL (≈ 29 µM) | 38.3 µg/mL (≈ 55.5 µM) | 56.4 µg/mL (≈ 81.7 µM) | 73.81 µg/mL (≈ 107 µM) | 36.5 µg/mL (≈ 52.8 µM) | 48.73 µg/mL (≈ 70.6 µM) | 42.37 µg/mL (≈ 61.3 µM) |  |  | 
4 | COc1cc([C@@H]2c3cc4c(cc3[C@@H](O[C@@H]3O[C@@H]5CO[C@@H](C)O[C@H]5[C@H](O)[C@H]3O)[C@H]3CN(NCc5ccccc5)C(=O)[C@H]23)OCO4)cc(OC)c1O [Example 4, 6H-Pyrrolo[3',4':6,7]naphtho[2,3-d]-1,3-dioxole-6-one, 5,5a,7,8,8a,9-hexahydro-9-[(4,6-O-ethylidene-β-D-glucopyranosyl)oxy]-5-[(4-hydroxy-3,5-dimethoxy)phenyl]-7-[(phenylmethyl)amino]-, [5R-[5α,5aβ,8aα,9β(R*)]-] | 73.4 µg/mL (≈ 106 µM) | 95.19 µg/mL (≈ 137 µM) | 105 µg/mL (≈ 151 µM) | 113.88 µg/mL (≈ 164 µM) | > 250 µg/mL |  | 122.94 µg/mL and > 250 µg/mL | > 250 µg/mL |  |  |  |  | 
5 | COc1cc([C@@H]2c3cc4c(cc3[C@@H](O[C@@H]3O[C@@H]5CO[C@@H](C)O[C@H]5[C@H](O)[C@H]3O)[C@H]3CNC(=O)[C@H]23)OCO4)cc(OC)c1O [Example 5, 6H-Pyrrolo[3',4':6,7]naphtho[2,3-d]-1,3-dioxole-6-one,5,5a,7,8,8a,9-hexahydro-9-[(4,6-O-ethylidene-β-D-glucopyranosyl)oxy]-5-[(4-hydroxy-3,5-dimethoxy)phenyl]-, [5R-[5α,5aα,8aα, 9β(R*)]-] |  | 27.92 µg/mL and 72.27 µg/mL | 56.1 µg/mL (≈ 95.5 µM) | 66.52 µg/mL (≈ 113 µM) | 103 µg/mL (≈ 175 µM) | 81.1 µg/mL (≈ 138 µM) | 102.51 µg/mL (≈ 174 µM) | 107 µg/mL (≈ 183 µM) | 123.53 µg/mL (≈ 210 µM) | 111.78 µg/mL (≈ 190 µM) |  |  | 
6 | COc1cc([C@@H]2c3cc4c(cc3[C@@H](O[C@@H]3O[C@@H]5CO[C@@H](C)O[C@H]5[C@H](O)[C@H]3O)[C@H]3CN(N=Cc5ccc([N+](=O)[O-])cc5)C(=O)[C@H]23)OCO4)cc(OC)c1O [Example 6, 6H-Pyrrolo[3',4':6,7]naphtho[2,3-d]-1,3-dioxole-6-one, 5,5a,7,8,8a,9-hexahydro-9-[(4,6-O-ethylidene-δ-D-glucopyranosyl)oxy]-5-[(4-hydroxy-3,5-dimethoxy)phenyl]-7-[[(4-nitrophenyl)methylene]amino], [5R-[5α,5aβ,8aα,9β(R*)]-] |  | 7.73 µg/mL and 16.11 µg/mL | 83.6 µg/mL (≈ 114 µM) | 60.66 µg/mL (≈ 82.5 µM) | > 250 µg/mL | > 250 µg/mL |  | > 250 µg/mL |  |  |  |  | 
7 | CCCCCCCC=NN1C[C@H]2[C@H](C1=O)[C@H](c1cc(OC)c(O)c(OC)c1)c1cc3c(cc1[C@H]2O[C@@H]1O[C@@H]2CO[C@@H](C)O[C@H]2[C@H](O)[C@H]1O)OCO3 [Example 9, 6H-Pyrrolo[3',4':6,7]naphtho[2,3-d]-1,3-dioxole-6-one, 5,5a,7,8,8a,9-hexahydro-9-[(4,6-O-ethylidene-β-D-glucopyranosyl)oxy]-5-[(4-hydroxy-3,5-dimethoxy)phenyl]-7-[(octylidene)amino]-, [5R-[5α,5aβ,8aα,9β(R*)]-] | 6.64 µg/mL (≈ 9.32 µM) | 6.70 µg/mL and 10.21 µg/mL |  | 3.39 µg/mL and 4.68 µg/mL and 16.63 µg/mL |  | 11.5 µg/mL (≈ 16.1 µM) | 15.09 µg/mL and 15.98 µg/mL |  | 21.21 µg/mL and 52.18 µg/mL and 95.53 µg/mL | 6.85 µg/mL and 23.65 µg/mL |  |  | 
8 | CCCCCCCC(=O)Oc1c(OC)cc([C@@H]2c3cc4c(cc3[C@@H](O[C@@H]3O[C@@H]5CO[C@@H](C)O[C@H]5[C@H](O)[C@H]3O)[C@H]3CN(N=Cc5ccccc5)C(=O)[C@H]23)OCO4)cc1OC [Example 10, 6H-Pyrrolo[3',4':6,7]naphtho[2,3-d]-1,3-dioxole-6-one, 5,5a,7,8,8a,9-hexahydro-9-[(4,6-O-ethylidene-β-D-glucopyranosyl)oxy]-5-[(3,5-dimethoxy-4-octanoyloxy)phenyl]-7-[(phenylmethylene)amino]-, [5R-[5α,5aβ,8aα, 9β(R*)]-] | 23.6 µg/mL (≈ 29 µM) | 16.76 µg/mL (≈ 20.5 µM) | 17.3 µg/mL (≈ 21.1 µM) | 16.05 µg/mL (≈ 19.6 µM) | 25.6 µg/mL (≈ 31.3 µM) | 25.6 µg/mL (≈ 31.3 µM) | 16.38 µg/mL (≈ 20.1 µM) | 21.2 µg/mL (≈ 26 µM) | 19.82 µg/mL (≈ 24.3 µM) | 13.50 µg/mL (≈ 16.5 µM) | 1 |  | 
9 | CCCCCCCC(=O)Oc1c(OC)cc([C@@H]2c3cc4c(cc3[C@@H](O[C@@H]3O[C@@H]5CO[C@@H](C)O[C@H]5[C@H](O)[C@H]3O)[C@H]3CNC(=O)[C@H]23)OCO4)cc1OC [Example 11, 6H-Pyrrolo[3',4':6,7]naphtho[2,3-d]-1,3-dioxole-6-one, 5,5a,7,8,8a,9-hexahydro-9[(4,6-O-ethylidene-β-D-glucopyranosyl)oxy]-5-[(3,5-dimethoxy-4-octanoyloxy)phenyl], [5R-[5α,5aβ,8aα,9β(R*)]-] | 21 µg/mL (≈ 29.4 µM) | 20.69 µg/mL (≈ 29 µM) | 17.3 µg/mL (≈ 24.2 µM) | 18.33 µg/mL (≈ 25.7 µM) | 18.7 µg/mL (≈ 26.2 µM) | 20.2 µg/mL (≈ 28.3 µM) | 25.92 µg/mL (≈ 36.3 µM) | 12.3 µg/mL (≈ 17.3 µM) | 12.48 µg/mL (≈ 17.5 µM) | 25.22 µg/mL (≈ 35.3 µM) | 1 |  | 
10 | COc1cc([C@@H]2c3cc4c(cc3[C@@H](O[C@@H]3O[C@@H]5CO[C@@H](C)O[C@H]5[C@H](O)[C@H]3O)[C@H]3CNC(=O)[C@H]23)OCO4)cc(OC)c1OP(=O)(O)O [Example 15, 6H-Pyrrolo[3',4':6,7]naphtho[2,3-d]-1,3-dioxole-6-one, 5,5a,7,8,8a,9-hexahydro-9-[(4,6-O-ethylidene-β-Dglucopyranosyl)oxy]-5-[(3,5-dimethoxy-4-phosphonoxy)phenyl]-1, disodium salt, [5R-[5α,5aβ,8aα,9β(R*)]-] |  |  |  |  |  |  |  |  |  |  |  | 235 % T/C | 
11 | CCNNC(=O)C1C(c2cc(OC)c(OC)c(OC)c2)c2cc3c(cc2C(O)C1CO)OCO3 (centres unmarked) [ethyl hydrazide of podophyllotoxin (V), ethyl hydrazide of podophyllotoxin] |  |  |  |  |  |  |  |  |  |  |  |  | minimal antitumor activity
